Source: patent publication US6835382B2, “Ii peptide therapeutics to enhance antigen presentation” (University of Massachusetts, priority 1996, dated 2004)
Non-standard residues stand in square brackets, D forms with d. hArg = N=C(N)NCCCC[C@H](N)C(=O)O; Cit = NC(=O)NCCC[C@H](N)C(=O)O; Orn = NCCC[C@H](N)C(=O)O

Target: T1, murine E^d MHC class II allele (Mus musculus, UniProt P01904+P01915)
T1 sequence (P01904 26-255): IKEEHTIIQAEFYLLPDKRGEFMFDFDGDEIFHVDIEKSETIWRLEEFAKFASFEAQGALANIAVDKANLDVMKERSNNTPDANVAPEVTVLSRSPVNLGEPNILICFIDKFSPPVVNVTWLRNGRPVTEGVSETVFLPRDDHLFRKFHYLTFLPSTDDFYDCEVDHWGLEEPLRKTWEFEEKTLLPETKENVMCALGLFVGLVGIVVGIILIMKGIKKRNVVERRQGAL
T1 sequence (P01915 27-264 limits assumed): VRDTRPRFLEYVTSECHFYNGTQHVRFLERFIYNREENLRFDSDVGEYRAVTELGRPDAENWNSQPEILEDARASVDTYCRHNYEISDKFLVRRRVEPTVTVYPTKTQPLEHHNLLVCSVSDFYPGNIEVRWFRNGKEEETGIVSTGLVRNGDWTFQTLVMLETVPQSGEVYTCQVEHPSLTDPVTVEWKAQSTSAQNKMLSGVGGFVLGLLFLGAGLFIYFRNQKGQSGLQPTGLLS
Experiment: antigenic peptide prepulse assay, E^d allele (fixed APC prepulsed with HEL106-116)
Format: cell-based
Design: The A20 and CH27 B cell lymphoma lines express H-2^d and H-2^k alleles, respectively; endogenous in cells; host or cells: A20 B cell lymphoma (mitomycin C-treated or paraformaldehyde-fixed)
Conditions: for Activity in antigenic peptide prepulse assay, E^d (baseline = 1.00) / Activity in antigenic peptide prepulse assay, E^d (baseline = 1.0) / Activity in antigenic peptide prepulse assay, E^d (baseline without AE peptide = 1.00): AE peptide 64 μM; for Activity in antigenic peptide prepulse assay, E^d (baseline = 1.0): Table 26; for Activity in antigenic peptide prepulse assay, E^d (baseline without AE peptide = 1.00): Table 19, prepulse 12 μM HEL106-116
Experimental: In a second type of assay, the “peptide prepulse assay”, the antigenic peptide is incubated with paraformaldehyde-fixed APC for 6 h. The APC are washed and incubated for 24 h with the AE101 series homolog and the T cell hybridoma specific for the antigenic peptide. After that incubation, an aliquot of the culture supernatant is transferred to a second culture to measure the relative degree of T hybridoma stimulation, as reflected in the effect of released interleukins on the growth of an interleukin-dependent, indicator cell line, as described above.
The two above described assays measure different aspects of the molecular mechanism of the AE101 series of peptides. In the “simultaneous assay”, AE101 series peptides are thought to induce the release of endogenously bound peptides and to permit the binding of the second, specific antigenic peptide which is relatively abundant in the culture fluid. The AE101 series peptides enhance antigenic peptide-specific T cell responses in simultaneous assays. In the “peptide prepulse” assay, the specific antigenic peptide becomes bound to MHC class II molecules on the surface of the fixed APC during the 6 h prepulse incubation. The effect of the AE101 series homologs is then thought to release that antigenic peptide, resulting in an apparent suppression of the immune response.
The AE101 series peptides are thought to contact the MHC class II molecules at a discrete site outside the antigenic peptide-binding groove. AE101 peptide binding to this “Ii-KEY” site is thought to induce a conformational change in the MHC class II molecules accelerating the dissociation of previously bound antigenic peptide. […] The AE101 series peptides thus inhibit antigenic peptide-specific T cell responses in the “peptide prepulse” assays.
Antigenic peptide-specific T cell activation was measured by the following procedure. Mitomycin C-treated A20 cells (A^dE^d) or CH27 cells APC (A^kE^k) were generated by incubating 5×10^6 cells/mL for 20 min at 37° C. with 0.025 mg/mL of mitomycin C (Sigma) in Dulbecco's Modified Eaglel's Medium (DMEM)/10 mM N-2(hydroxyethylpiperazine-N″[2-ethanesulfonic acid] (HEPES), followed by two washes with four volumes of DMEM-5% fetal calf serum (FCS), 10 mM HEPES. Fixed APC were generated by treating 1×10^6 cells/mL for 5 min with 0.5% paraformaldehyde in PBS (pH 7.2), followed by two washes with four volumes of DMEM-10% FCS, 10 mM HEPES. T cell hybridomas were irradiated 2200 rads before each assay.
The “peptide prepulse assay” was carried out under essentially the same conditions as described for the “simultaneous assay” with the following modifications. Fixed APC were first incubated for 6 h at 1×10^6 cells/mL in complete DMEM-5% FCS in 24-well microculture plates (1 mL/well) with antigenic peptide, followed by four washes with 10 volumes of DMEM-5% FCS. The cells were then exposed to varying concentrations of AE101 series peptide (64 μM, 16 μM, 4 μM, and 1 μM) for 24 h in the presence of the T cell hybridoma specific to the antigenic peptide. Interleukin release from these cultures was measured by proliferation of HT-2 cells to interleukins in supernatants transferred from the primary culture. Generally, a single dose of 64 μM of each AE101 series peptide was used. The baseline T cell response was measured by culturing T hybridoma cells with the antigenic peptide-prepulsed APC in the absence of AE101 series peptides.
[…] […] Paraformaldehyde-treated APC (fixed APC) expressing MHC class II molecules were incubated with antigenic peptide for 6 h (HEL106-116 for E^d and PGCC81-104 for E^k). After this incubation, the prepulsed APC were washed and cultured with T hybridoma cells and AE101 series peptides. […] The AE101 series peptide concentrations were 64 μM for E^d and 16 μM for E^k. The dilutions of supernatant taken into the HT-2 cell assay were 1:4 for Ed and 1:2 for E^k.

[1] = Table 24, prepulse 24 μM antigenic peptide, supernatant 1:4
[2] = Table 25, prepulse 24 μM antigenic peptide, supernatant 1:4
[3] = prepulse 24 μM antigenic peptide, supernatant 1:2
[4] = Table 20, prepulse 3 μM antigenic peptide, supernatant 1:2
[5] = Table 22, prepulse 6 μM antigenic peptide, supernatant 1:8

## Ac-LRLKYPK-NH2 [AE301]
[1]
  Activity in antigenic peptide prepulse assay, E^d (baseline = 1.00): 0.48
[2]
  Activity in antigenic peptide prepulse assay, E^d (baseline = 1.00): 0.66
[3]
  Activity in antigenic peptide prepulse assay, E^d (baseline = 1.0): 0.34

## Ac-LR N KLPK-NH2 (Ac-LRNKLPK-NH2) [AE202]
[2]
  Activity in antigenic peptide prepulse assay, E^d (baseline = 1.00): 0.30

## Ac-Y D MKLPKSAK-NH2 [AE135]
[4]
  Activity in antigenic peptide prepulse assay, E^d (baseline = 1.00): 0.70

## Ac-LRMKLP[Cit]-NH2 [AE241]
[3]
  Activity in antigenic peptide prepulse assay, E^d (baseline = 1.0): 0.70

## Ac-ARMKLPKSAK-NH2 [AE120]
[2]
  Activity in antigenic peptide prepulse assay, E^d (baseline = 1.00): 0.63

## Ac-LRMK l PK-NH2 [AE164]
[5]
  Activity in antigenic peptide prepulse assay, E^d (baseline = 1.00): 0.37
[1]
  Activity in antigenic peptide prepulse assay, E^d (baseline = 1.00): 0.59

## Ac-ARNKNPK-NH2 [AE346]
[2]
  Activity in antigenic peptide prepulse assay, E^d (baseline = 1.00): 0.65

## Ac-Y[hArg]MKLPKSAK-NH2 [AE132]
[4]
  Activity in antigenic peptide prepulse assay, E^d (baseline = 1.00): 0.58
[3]
  Activity in antigenic peptide prepulse assay, E^d (baseline = 1.0): 0.82

## Ac-LR (mL) KyPk-NH2 [AE306]
[1]
  Activity in antigenic peptide prepulse assay, E^d (baseline = 1.00): 0.68

## Ac-Y[Orn]MKLPKSAK-NH2 [AE130]
[4]
  Activity in antigenic peptide prepulse assay, E^d (baseline = 1.00): 0.79

## Ac-LRMKL p K-NH2 [AE165]
[5]
  Activity in antigenic peptide prepulse assay, E^d (baseline = 1.00): 0.25

## Ac-LRM k LPK-NH2 [AE163]
[5]
  Activity in antigenic peptide prepulse assay, E^d (baseline = 1.00): 0.39

## Ac-YRMKL-NH2 [AE116]
Supernatant 1:4
  Activity in antigenic peptide prepulse assay, E^d (baseline without AE peptide = 1.00): 0.80

## Ac-l RMKLPK-NH2 [AE160]
[5]
  Activity in antigenic peptide prepulse assay, E^d (baseline = 1.00): 0.40

## Ac-YRMKLPKSAK-NH2 [AE109]
Supernatant 1:4
  Activity in antigenic peptide prepulse assay, E^d (baseline without AE peptide = 1.00): 0.11
[4]
  Activity in antigenic peptide prepulse assay, E^d (baseline = 1.00): 0.28
Table 21, prepulse 24 μM antigenic peptide, supernatant 1:8
  Activity in antigenic peptide prepulse assay, E^d (baseline = 1.00): 0.10

## Ac-LR m KLPK-NH2 [AE162]
[5]
  Activity in antigenic peptide prepulse assay, E^d (baseline = 1.00): 0.28

## Ac-Y F MKLPKSAK-NH2 [AE139]
[4]
  Activity in antigenic peptide prepulse assay, E^d (baseline = 1.00): 0.67

## Ac-LR (mL) KYPk-NH2 [AE305]
[1]
  Activity in antigenic peptide prepulse assay, E^d (baseline = 1.00): 0.72

## Ac-LRM M LPK-NH2 (Ac-LRMMLPK-NH2) [AE220]
[3]
  Activity in antigenic peptide prepulse assay, E^d (baseline = 1.0): 0.73

## Ac-YRMKLP-NH2 [AE115]
Supernatant 1:4
  Activity in antigenic peptide prepulse assay, E^d (baseline without AE peptide = 1.00): 0.49

## Ac-L[Cit]NKLPK-NH2 [AE343]
[2]
  Activity in antigenic peptide prepulse assay, E^d (baseline = 1.00): 0.55

## Ac-ARMKNPK-NH2 [AE345]
[2]
  Activity in antigenic peptide prepulse assay, E^d (baseline = 1.00): 0.61

## Ac-LRMK (mL) PK-NH2 [AE175]
Table 23, as printed: antigenic peptide prepulse 64 μM, AE peptide 1:4 μM, supernatant 1:8
  Activity in antigenic peptide prepulse assay, E^d (baseline = 1): 0.7
[1]
  Activity in antigenic peptide prepulse assay, E^d (baseline = 1.00): 0.70

## Ac-LRLKWPK-NH2 [AE309]
[1]
  Activity in antigenic peptide prepulse assay, E^d (baseline = 1.00): 0.44
[2]
  Activity in antigenic peptide prepulse assay, E^d (baseline = 1.00): 0.48
[3]
  Activity in antigenic peptide prepulse assay, E^d (baseline = 1.0): 0.25

## Ac-YRMK-NH2 [AE117]
Supernatant 1:4
  Activity in antigenic peptide prepulse assay, E^d (baseline without AE peptide = 1.00): 0.65

## Ac-Y K MKLPKSAK-NH2 [AE134]
[4]
  Activity in antigenic peptide prepulse assay, E^d (baseline = 1.00): 0.60
[3]
  Activity in antigenic peptide prepulse assay, E^d (baseline = 1.0): 0.83

## Ac-ARNKLPK-NH2 [AE344]
[2]
  Activity in antigenic peptide prepulse assay, E^d (baseline = 1.00): 0.46

## Ac-LR (mL) KLPK-NH2 [AE302]
[1]
  Activity in antigenic peptide prepulse assay, E^d (baseline = 1.00): 0.82

## Ac-LR[Orn]KLPK-NH2 [AE195]
[2]
  Activity in antigenic peptide prepulse assay, E^d (baseline = 1.00): 0.41

## Ac-LR (mL) KYPK-NH2 [AE303]
[1]
  Activity in antigenic peptide prepulse assay, E^d (baseline = 1.00): 0.78

## Ac-LRLKyPK-NH2 [AE308]
[1]
  Activity in antigenic peptide prepulse assay, E^d (baseline = 1.00): 0.93

## Ac-L[Cit]MKNPK-NH2 [AE342]
[2]
  Activity in antigenic peptide prepulse assay, E^d (baseline = 1.00): 0.67

## Ac-Y H MKLPKSAK-NH2 [AE133]
[4]
  Activity in antigenic peptide prepulse assay, E^d (baseline = 1.00): 0.39

## Ac-Y Q MKLPKSAK-NH2 [AE138]
[4]
  Activity in antigenic peptide prepulse assay, E^d (baseline = 1.00): 0.73

## Ac-LRMKLPKPPP-NH2 [AE167]
Supernatant 1:4
  Activity in antigenic peptide prepulse assay, E^d (baseline without AE peptide = 1.00): 0.23

## Ac-YRMKLPK-NH2 [AE113]
Supernatant 1:4
  Activity in antigenic peptide prepulse assay, E^d (baseline without AE peptide = 1.00): 0.10

## Ac-ARNKNPF-NH2 [AE347]
[2]
  Activity in antigenic peptide prepulse assay, E^d (baseline = 1.00): 0.64

## Ac-LRMKLPKPPK-NH2 [AE168]
Supernatant 1:4
  Activity in antigenic peptide prepulse assay, E^d (baseline without AE peptide = 1.00): 0.10
